The nature of series [1]: Cytotoxicity against african green monkey Vero cells. Type of series: cell-based. To be noted: chlorocebus sabaeus.
Series [2] in a line: Cytotoxicity against african green monkey Vero cells assessed as drug concentration at which no cellular alteration was microscopically detected. Type of series: cell-based. To be noted: chlorocebus sabaeus, read-out: MTC.
Series [3] is described as follows: Selectivity index, ratio of CC50 for african green monkey Vero cells to ED50 for Poliovirus 2 Sabin 2. It counts as toxicity, cell-based.
Series [4] deals with Poliovirus 2. The series is described as follows: Antiviral activity against Poliovirus 2 Sabin 2 infected in african green monkey Vero cells at 0.001 multiplicity of infection assessed as inhibition of virus-induced cytopathogenicity. It counts as functional. To be noted: Enterovirus C, Sabin 2, Vero; read-out: ED50 (the source's name). On the technique in general: Cytopathic effects are the visible damage that an infection or toxin causes in cultured cells.

Series [5] has as its system Poliovirus 2. Kind of series: Antiviral activity against Poliovirus 2 Sabin 2 in african green monkey Vero cells assessed as log reduction in virus titers after at 0.001 multiple round of replication at their respective maximum tolerated concentration after 32 hrs. It counts as functional.
In series [6] the test system is Poliovirus 2. The series is described as follows: Antiviral activity against Poliovirus 2 Sabin 2 in african green monkey Vero cells assessed as log reduction in virus titers after at 0.01 multiple round of replication at their respective half the maximum tolerated concentration after 32 hrs. Type of series: functional.
The subject of series [7] is Poliovirus 2. Kind of series: Antiviral activity against Poliovirus 2 Sabin 2 in african green monkey Vero cells assessed as log reduction in virus titers after at 0.1 multiple round of replication at their respective half of maximum tolerated concentration after 32 hrs. Type of series: functional.
Series [8] concerns Poliovirus 2. The series is described as follows: Antiviral activity against Poliovirus 2 Sabin 2 in african green monkey Vero cells assessed as log reduction in virus titers after at 0.1 multiple round of replication at their respective maximum tolerated concentration after 32 hrs. Type of series: functional.
The subject of series [9] is Poliovirus 2. The series is described as follows: Antiviral activity against Poliovirus 2 Sabin 2 in african green monkey Vero cells assessed as log reduction in virus titers after at 0.001 multiple round of replication at their respective half the maximum tolerated concentration after 32 hrs. It counts as functional.
Series [10] relates to Poliovirus 2. Kind of series: Antiviral activity against Poliovirus 2 Sabin 2 in african green monkey Vero cells assessed as log reduction in virus titers after at 0.01 multiple round of replication at their respective maximum tolerated concentration after 32 hrs. Type of series: functional.

pEC50: −log10 of the molar value. Structures can show the parent of a compound that is named as a salt.

By CC50 is commonly meant the concentration at which the toxic effect on the cells reaches its halfway point.

The compound `O=C1c2ccccc2-c2c3c(cc4ccnc1c24)OCO3` [LIRIODENINE] had a cytotoxic concentration (CC50) in series [1] of 48 µM. The MNTC in series [2] worked out at 31 µM.
In the case of `COc1cc2c(cc1O)C[C@@H]1NCCc3cc(O)c(OC)c-2c31` [NORBOLDINE], the selectivity ratio in series [3] amounted to 1.5. In addition, the CC50 in [1] was found to be 95 µM. Further, in [2], the MNTC stood at 62 µM. For the same compound, in the series with Poliovirus 2 [4], the pEC50 was 4.21.
In the case of `COc1cc2c3c(c1OC)-c1ccccc1C[C@H]3N(C)CC2.Cl` [NUCIFERINE HYDROCHLORIDE], the selectivity ratio in series [3] was 16.7. The same compound displayed a cytotoxic concentration (CC50) in [1] of 435 µM. Also, the MNTC in series [2] was 125 µM. For the same compound, the Activity is recorded as 2 in the series on Poliovirus 2 [5]; 0.5 in the series with Poliovirus 2 [6]; 0.5 in the series on Poliovirus 2 [7]; 1 in the series on Poliovirus 2 [8]; 0.5 in the series on Poliovirus 2 [9]; 1 in the series with Poliovirus 2 [10]. Also, the pEC50 in the series on Poliovirus 2 [4] was 4.59.
In turn, `CO[C@H]1c2ccccc2-c2c3c(cc4c2[C@@H]1NCC4)OCO3` [PACHYPODANTINE] returned a CC50 in series [1] of 25 µM. The MNTC in [2] was determined as 20 µM.
On the same counts, the results for `COc1cccc2c1C(=O)c1nccc3cc4c(c-2c13)OCO4` [OXOSTEPHANINE] are 28 µM and 15 µM.
As to `COc1cc2c(cc1OC)-c1c(OC)c(OC)cc3c1[C@H](C2)N(C)CC3.O=C(O)/C=C/C(=O)O` [GLAUCINE FUMARATE], in series [3], the selectivity ratio stood at 15.8. This compound also returned a CC50 in [1] of 142 µM. Besides, the MNTC in [2] came out at 62 µM. The Activity with Poliovirus 2 [5] was 3; in the series on Poliovirus 2 [6], 1; with Poliovirus 2 [7], 0.5; with Poliovirus 2 [8], 1; with Poliovirus 2 [9] it was 1.5; in the series on Poliovirus 2 [10], 1.5. Also, the pEC50 in the series with Poliovirus 2 [4] is 5.05.
Regarding `COc1c2c3c(c4c1OCO4)-c1ccccc1[C@H](O)[C@H]3N(C)CC2` [GUATTERINE], the selectivity ratio in series [3] stood at 1.7. The midpoint of cytotoxicity in series [1], the CC50, lay at 107 µM. Besides, the MNTC in series [2] is 62 µM. For the same compound, the pEC50 in the series with Poliovirus 2 [4] was 4.21.
In turn, `COc1ccc2c(c1)[C@H](OC)[C@@H]1c3c(cc4c(c3-2)OCO4)CCN1C` [OLIVERINE HCL] had a half-maximal cytotoxic concentration (CC50) in series [1] of 9 µM. Also, the MNTC in series [2] stood at 7 µM.
In series [1], `COc1cc2ccnc3c2c(c1OC)-c1ccccc1C3=O` [LYSICAMINE] yielded a 50% cytotoxic concentration (CC50) of 500 µM. The MNTC in series [2] worked out at 250 µM.
Consider `COc1cc2c(cc1O)C[C@H]1c3c(cc4c(c3-2)OCO4)CCN1C` [CASSYTHICINE], for which, in series [1], the CC50 came to 47 µM. The MNTC in [2] was 31 µM.
Turning to `COc1cc2c(cc1O)C[C@@H]1NCCc3cc4c(c-2c31)OCO4` [ACTINODAPHNINE], in series [1], the CC50 is 107 µM. The MNTC in [2] came to 95 µM.
For `CO[C@H]1c2ccccc2-c2c3c(cc4c2[C@@H]1N(C)C[C@@H]4O)OCO3` [PACHYSTAUDINE], the selectivity ratio in series [3] came to 2.2. Also, in [1], the midpoint of cytotoxicity, the CC50, lay at 68 µM. Moreover, the MNTC in series [2] was determined as 62 µM. Also, the Activity in the series with Poliovirus 2 [5] is listed as 0.5; in the series with Poliovirus 2 [8] it was 0; with Poliovirus 2 [10], 0.5. The pEC50 in the series with Poliovirus 2 [4] was 4.51.
On to `COc1cc2c(cc1O)C[C@H]1c3c(cc(OC)c(O)c3-2)CCN1C.Cl` [ISOBOLDINE HYDROCHLORIDE], for which the selectivity ratio in series [3] worked out at 14.5. In addition, in series [1], the cytotoxic concentration (CC50) stood at 217 µM. Further, in [2], the MNTC was determined as 125 µM. Moreover, the Activity with Poliovirus 2 [5] amounted to 2.5; in the series with Poliovirus 2 [6], 1; in the series on Poliovirus 2 [7], 1; in the series with Poliovirus 2 [8] it was 1.5; in the series with Poliovirus 2 [9], 1.5; in the series with Poliovirus 2 [10], 1.5. For the same compound, the pEC50 in the series on Poliovirus 2 [4] was 4.82.
As for `COc1cc2c(cc1OC)-c1c(OC)c(OC)cc3c1[C@H](C2)N(C(C)=O)CC3`, the selectivity ratio in [3] stood at 6.8. Moreover, the 50% cytotoxic concentration (CC50) in series [1] was determined as 342 µM. In addition, the MNTC in series [2] was determined as 250 µM. Besides, the Activity in the series on Poliovirus 2 [5] was found to be 1.5; with Poliovirus 2 [6], 0.5; with Poliovirus 2 [7], 0.5; in the series on Poliovirus 2 [8] it was 1.5; in the series with Poliovirus 2 [9], 1; with Poliovirus 2 [10], 1.5. Further, the pEC50 with Poliovirus 2 [4] is 4.30.
In the case of `COc1cc2c(cc1O)C[C@H]1c3c(cc(OC)c(OC)c3-2)CCN1C`, in [3], the selectivity ratio came out at 16.7. For the same compound, in series [1], it took 250 µM to reach half-maximal cytotoxicity (CC50). For the same compound, the MNTC in series [2] stood at 125 µM. Besides, the Activity in the series on Poliovirus 2 [5] is reported as 2.5; in the series with Poliovirus 2 [6], 1; in the series with Poliovirus 2 [7], 0.5; with Poliovirus 2 [8], 1; in the series with Poliovirus 2 [9], 1; with Poliovirus 2 [10], 1.5. For the same compound, the pEC50 with Poliovirus 2 [4] was 4.82.
Consider `COc1cc2c(cc1O)C[C@@H]1NCCc3cc(OC)c(OC)c-2c31` [LAUROTETANINE], for which the selectivity ratio in series [3] amounted to 5.3. The compound further had a half-maximal cytotoxic concentration (CC50) in series [1] of 165 µM. Besides, the MNTC in series [2] was 62 µM. In addition, the Activity is 1.5 with Poliovirus 2 [5]; 1 in the series on Poliovirus 2 [6]; 0.5 in the series with Poliovirus 2 [7]; 1 in the series on Poliovirus 2 [8]; 1 with Poliovirus 2 [9]; 1.5 in the series on Poliovirus 2 [10]. For the same compound, in the series with Poliovirus 2 [4], the pEC50 is 4.51.
For the compound `COc1ccc2c(c1)[C@H](O)[C@@H]1c3c(cc4c(c3-2)OCO4)CCN1C` [OLIVERIDINE], the midpoint of cytotoxicity in series [1], the CC50, lay at 7 µM. Moreover, the MNTC in series [2] turned out to be 5 µM.
As to `COc1cc2c(cc1O)C[C@H]1c3c(cc(O)c(OC)c3-2)CCN1C` [BOLDINE], in series [3], the selectivity ratio came to 2. This compound also had a half-maximal cytotoxic concentration (CC50) in series [1] of 250 µM. In addition, in [2], the MNTC worked out at 125 µM. Moreover, in the series on Poliovirus 2 [4], the pEC50 was 3.90.

These data come from ChEMBL document CHEMBL1158665, “Antipoliovirus structure-activity relationships of some aporphine alkaloids” (J Nat Prod, 1998).
